{
  "source": "patent US20030171424A1",
  "about": "“Intravenous formulation of artelinic acid for treatment of severe and complicated malaria” (priority 2002, published 2003)",
  "key": {"[1]": {"settings": "cited from earlier work; for CNS toxicity: chronically dosed rats and dogs; for CNS toxicity versus oil soluble analogs such as artemether and arteether: rats and dogs"}, "[2]": {"settings": "in vivo; cited from earlier work"}, "[3]": {"assay": "Intravenous toxicity and tolerance in rat", "format": "in vivo", "settings": "in 5% sodium carbonate vehicle", "source_text": "Although a ready-to-use intravenous solution in a multiple dose vial is a convenient and preferable formulation, current formulation of dissolving preformed AL/LY salt in 0.3% of L-lysine/saline solution prior to administration has been used satisfactorily to assess the efficacy and toxicity of AL in rat, Aotus and Rhesus monkey models."}, "[4]": {"method": "The most commonly used water soluble salt for acidic drugs is sodium salt. The sodium salt of artelinic acid was prepared in our laboratory by dissolving artelinic acid in a slightly less than one equivalent mole of sodium hydroxide solution. The slight excess amount of insoluble artelinic acid was removed by extraction of the mixture with diethyl ether. The aqueous layer was evaporated under reduced pressure using a rotary evaporator to remove the small amount of volatile diethyl ether, and then lyophilized to give sodium artelinate as a white powder."}, "[5]": {"assay": "Stability of bulk salt and solutions on standing", "format": "physicochemical", "source_text": "The precipitates were identified by NMR and x-ray crystallography to be pure artelinic acid.\nFeasibility of using preformed AL salts with three basic amino acids, L-lysine, L-arginine or L-histidine for AL intravenous formulation were studied. The basicity of histidine is too weak to form water soluble AL-histidine salt. […] Therefore, L-lysine was deemed the most feasible.\nAL/LY is soluble in water, saline, glucose solution or any IV injectable (neutral or basic) water solution. […] Therefore, for practical purpose, the preferred vehicle for intravenous injection is a normal saline or 5% glucose solution containing 0.1-0.5% L-lysine. The final osmolarity is around 290 mosm/kg."}, "P. knowlesi": {"system": "P. knowlesi", "settings": "rhesus monkeys, 15 mg/kg×3 days; cited from earlier work"}, "P. berghei": {"system": "P. berghei", "settings": "administered orally; cited from earlier work"}, "[6]": {"settings": "aqueous solution made in 5% sodium bicarbonate; cited from earlier work"}, "severe malaria": {"system": "severe malaria", "assay": "Efficacy in Severe Malaria (rhesus)", "format": "in vivo"}, "P. coatneyi malaria": {"system": "P. coatneyi malaria", "assay": "AL/LY Efficacy in Uncomplicated Malaria (rhesus)", "format": "in vivo", "settings": "control animal, 7 days of IM BID", "method": "1. AL/LY Efficacy in Uncomplicated Malaria (done with PK trial)\ni. 10 splenectomized rhesus with mild P. coatneyi malaria (mean parasitemia 773K/μl or 11.8%) and one quinine control (773K/μl or 13.5%). All asymptomatic.\nii. 11.8 mg/kg loading dose given IV push over 3 minutes, then 5.9 mg/kg for 2 days"}},
  "data": [
    {"compound": "CO[C@H]1O[C@@H]2O[C@@]3(C)CC[C@H]4[C@H](C)CC[C@@H]([C@H]1C)[C@@]24OO3", "note": "[artemether, Artemether]", "values": [
      {"measurement": "CNS toxicity", "setting": "[1]", "value": "fatal CNS toxicity"},
      {"measurement": "plasma half-life", "setting": "[2]", "value": "short plasma half-life"}
    ]},
    {"compound": "C[C@H]1[C@H](OC(=O)CCC(=O)O)O[C@@H]2O[C@@]3(C)CC[C@H]4[C@H](C)CC[C@@H]1[C@@]24OO3", "note": "[AS, artesunic acid]", "values": [
      {"measurement": "CNS toxicity versus oil soluble analogs such as artemether and arteether", "setting": "[1]", "value": "substantially less CNS toxicity"}
    ]},
    {"compound": "artelinic acid [AL]", "values": [
      {"measurement": "CNS toxicity versus oil soluble analogs such as artemether and arteether", "setting": "[1]", "value": "substantially less CNS toxicity"},
      {"measurement": "LD50", "setting": "[3]; female rat", "value": 50, "unit": "mg/kg"},
      {"measurement": "LD50", "setting": "[3]; male rat", "value": 67, "unit": "mg/kg"},
      {"measurement": "water solubility", "setting": "[4]", "value": "not water soluble"}
    ]},
    {"compound": "C[C@H]1[C@@H](OCc2ccc(C(=O)[O-])cc2)O[C@@H]2O[C@]3(C)CC[C@H]4[C@H](C)CC[C@@H]1[C@@]24OO3.[Na+]", "note": "[Na-AL, Sodium artelinate]", "values": [
      {"measurement": "plasma half-life", "setting": "[2]", "value": "90 to 180", "unit": "min"},
      {"measurement": "time the solution stayed clear", "setting": "[5]; in sodium carbonate 0.1 to 0.5%, depending on concentration", "value": "from one week to one month"},
      {"measurement": "appearance of freshly prepared aqueous solution on standing", "setting": "[5]; room temperature", "value": "turned turbidity"},
      {"measurement": "decomposition product on standing", "setting": "[5]; room temperature for three months", "value": "No decomposition product was detected"},
      {"measurement": "crystal formation on longer standing", "setting": "[5]; sodium carbonate solutions, room temperature, longer period, free artelinic acid", "value": "crystallized out from all solutions"},
      {"measurement": "cure of infection", "setting": "P. knowlesi", "value": "complete cures"},
      {"measurement": "solubility in distilled water", "setting": "[4]", "value": "does not dissolve completely"},
      {"measurement": "solubility in sodium carbonate solution", "setting": "[4]", "value": "very soluble"},
      {"measurement": "water solubility", "setting": "[4]", "value": "> 60", "unit": "mg/mL"},
      {"measurement": "efficacy", "setting": "P. berghei", "value": "highly effective"}
    ]},
    {"compound": "C[C@H]1[C@H](OC(=O)CCC(=O)[O-])O[C@@H]2O[C@@]3(C)CC[C@H]4[C@H](C)CC[C@@H]1[C@@]24OO3.[Na+]", "note": "[sodium artesunate, Sodium artesunate]", "values": [
      {"measurement": "plasma half-life", "setting": "[2]", "value": "20 to 30", "unit": "min"},
      {"measurement": "time within which dihydroartemisinin precipitates out from unused solution", "setting": "[6]", "value": "2 to 3", "unit": "h"}
    ]},
    {"compound": "C=C[C@H]1C[N@@]2CC[C@H]1C[C@H]2[C@H](O)c1ccnc2ccc(OC)cc12", "note": "[quinine]", "values": [
      {"measurement": "cure", "setting": "severe malaria; IM BID for 7 days", "value": "all cured"},
      {"measurement": "parasitemia cleared, mean time", "setting": "severe malaria; IM BID for 7 days", "value": 5.6, "unit": "days"},
      {"measurement": "time to resolution of severe malaria symptoms", "setting": "severe malaria; IM BID for 7 days", "value": 3, "unit": "days"},
      {"measurement": "survived", "setting": "severe malaria; IM BID for 7 days, controls (4 of 5)", "value": 80, "unit": "%"},
      {"measurement": "died", "setting": "severe malaria; therapy delayed 24 hours", "value": 50, "unit": "%"},
      {"measurement": "day on which parasitemia cleared", "setting": "P. coatneyi malaria", "value": 8, "unit": "days"}
    ]},
    {"compound": "CC1CCC2C(C)C(OCc3ccc(C(=O)O)cc3)OC3OC4(C)CCC1C32OO4.N=C(N)NCCCC(N)C(=O)O", "note": "(stereo not shown) [AL-arginine salt]", "values": [
      {"measurement": "colour of aqueous solution on standing", "setting": "[5]; room temperature, within two days to one week", "value": "turned to deep red color"}
    ]},
    {"compound": "CCO[C@H]1O[C@@H]2O[C@@]3(C)CC[C@H]4[C@H](C)CC[C@@H]([C@H]1C)[C@@]24OO3", "note": "[arteether, Arteether]", "values": [
      {"measurement": "CNS toxicity", "setting": "[1]", "value": "fatal CNS toxicity"},
      {"measurement": "plasma half-life", "setting": "[2]", "value": "short plasma half-life"}
    ]}
  ]
}
